{"source": "paper PMC6598759", "about": "“In vitro genotoxicity of nitroimidazoles as a tool in the search of new trypanocidal agents” (Memórias do Instituto Oswaldo Cruz, 2019)", "key": {"[1]": {"test_system": "whole human blood cells (WHBC)", "assay": "In vitro cytokinesis-block micronucleus assay (CBMN) with whole human blood cells", "settings": "positive control", "protocol": "In vitro cytokinesis-block micronucleus assay (CBMN) with whole human blood cells (WHBC) - Heparinised WHBC samples were obtained by venipuncture from volunteers as described above. […] WHBC cultures exposed to mitomycin C (MMC) (1.0 µg/mL in water) (Bristol, USA) for 2 h or to N-deacetyl-N-methylcolchicine in water (Demecolcine: Sigma-Aldrich) 0.02 µg/mL for 28 h were used as positive control cultures. After the treatment, the WHBC cultures were centrifuged (900 rpm, 10 min) and washed with 5 mL PBS. […] CytB has cytokinesis-block activity leading to the formation of binucleate cells. […] The fixed cell suspension was dropped on a clean glass slide and the slide was air-dried on a heating plate (60 °C). Air-dried slides were stained with 60 µg/mL acridine orange in Sörensen buffer (0.03 M KH2PO4, 0.03 M Na2HPO4) for 3s, then they were embedded in distilled water and covered with a coverslip. MN showing bright green fluorescence were analysed using a fluorescence microscope at 400 X magnification. MN were scored in 2,000 binucleated cells (BNC) for culture and the number of the micronucleate cells (MNC) in 2,000 BNC was determined. Cytotoxicity was measured using the cytokinesis-block proliferation index (CBPI) and the replication index (RI) which were calculated from 500 cells. The CBPI indicates the average number of nuclei per cell, and may be used to calculate cell proliferation. The RI indicates the relative number of cell cycles per cell during the period of exposure to cytoB in treated cultures compared to control cultures and can be used to calculate the % cytostasis. CBPI was calculated according to the formula: CBPI = [(No. mononucleate cells) + (2 x No. binucleate cells) + (3 x No. multinucleate cells)] / N, where N indicates the total number of cells scored. RI (%) was calculated according to the formula:\nRI %=((No. binucleate cells) + (2 x No. multinucleate cells)) ÷ (Total number of cells)T/((No. binucleate cells) + (2 x No. multinucleate cells)) ÷ (Total number of cells)C x 100\nwhere T indicates treated cultures and C control cultures\nCytotoxicity was evidenced in the occurrence of reduction in CBPI or RI of cultures treated by test substances when compared to control cultures. The measurement of cytotoxicity was used to select the concentrations of the test substance to be analysed for the presence of MN. […] However, it was adopted in this work as the maximum concentration in CBMN one that induced a proliferation inhibition not exceeding about 50% established by ICH S2 (R1) for lymphocyte cultures.\nThe chi-square test for trend was performed to analyse if the increase of MNC was concentration-related.[30]"}, "[2]": {"test_system": "whole human blood cells (WHBC)", "assay": "In vitro alkaline comet assay (CA) in whole human blood cells", "format": "cell-based", "protocol": "Methyl methane-sulfonate (MMS) (160 μM) (Sigma-Aldrich) was used as a positive control. […] Slides were prepared, lysed (pH 10; 4-5 °C) and processed as described earlier,[32] using a time of alkali denaturation of 20 min and electrophoresis (0.86 V/cm and 300 mA) of 20 min at a pH > 13. […] The DNA damage was expressed as percentage of cells into four classes and as arbitrary units (AU) according to the formula: AU = (0 […] 3), where n = the number of cells analysed in each class. The total DNA damage score in AU (TAU) for 200 cells can range from 0 TAU (200 undamaged cells) to 600 TAU (all cells maximally damaged)."}, "Chagas disease": {"test_system": "Chagas disease", "settings": "adults with chronic infection; cited from earlier work"}}, "note": "Several values for one entry are separate records, joined by “and”; a condition that tells them apart may be missing. Identical values can stand only once.", "data": [{"smiles": "CO[C@@]12[C@H](COC(N)=O)C3=C(C(=O)C(C)=C(N)C3=O)N1C[C@@H]1N[C@@H]12", "note": "[MMC, mitomycin C, reference compound]", "values": [{"measurement": "MNC in 2,000 BNC", "setting": "[1]; 1.0 μg/mL, 2 h", "result": "38 and 56 and 40"}]}, {"smiles": "COS(C)(=O)=O", "note": "[MMS, Methyl methane-sulfonate, reference compound]", "values": [{"measurement": "cells with class 3 DNA damage", "setting": "[2]; 160 µM", "result": 87.7, "unit": "%"}, {"measurement": "TAU mean value (total DNA damage score)", "setting": "[2]; 160 μM, positive control, p < 0.001 vs control", "result": "554.2 ± 9.9", "unit": "TAU"}]}, {"smiles": "CN[C@H]1CCc2cc(OC)c(OC)c(OC)c2-c2ccc(OC)c(=O)cc21", "note": "[Demecolcine, N-deacetyl-N-methylcolchicine, reference compound]", "values": [{"measurement": "MNC in 2,000 BNC", "setting": "[1]; 0.02 μg/mL, 28 h", "result": "37 and 42 and 30"}]}, {"smiles": "CC1CS(=O)(=O)CCN1/N=C/c1ccc([N+](=O)[O-])o1", "note": "(stereo not drawn) [Nfx, nifurtimox]", "values": [{"measurement": "discontinuation of the treatment", "setting": "Chagas disease", "result": "14-75%"}, {"measurement": "frequency of adverse effects", "setting": "Chagas disease", "result": "43.0-97.5%"}]}]}
